Our source for the IC50 values is patent US11739098B2 (BRISTOL-MYERS SQUIBB COMPANY, priority 2017, dated 2023).

pIC50: −log10 of the molar value.

Holding throughout (format): cell-based
For one assay, the target named is T1, human TLR9 (Homo sapiens, UniProt Q9NR96).
T1 construct: host or cells: HEK-Blue cells (HEK293-derived reporter line)
T1 sequence (Q9NR96 26-1032): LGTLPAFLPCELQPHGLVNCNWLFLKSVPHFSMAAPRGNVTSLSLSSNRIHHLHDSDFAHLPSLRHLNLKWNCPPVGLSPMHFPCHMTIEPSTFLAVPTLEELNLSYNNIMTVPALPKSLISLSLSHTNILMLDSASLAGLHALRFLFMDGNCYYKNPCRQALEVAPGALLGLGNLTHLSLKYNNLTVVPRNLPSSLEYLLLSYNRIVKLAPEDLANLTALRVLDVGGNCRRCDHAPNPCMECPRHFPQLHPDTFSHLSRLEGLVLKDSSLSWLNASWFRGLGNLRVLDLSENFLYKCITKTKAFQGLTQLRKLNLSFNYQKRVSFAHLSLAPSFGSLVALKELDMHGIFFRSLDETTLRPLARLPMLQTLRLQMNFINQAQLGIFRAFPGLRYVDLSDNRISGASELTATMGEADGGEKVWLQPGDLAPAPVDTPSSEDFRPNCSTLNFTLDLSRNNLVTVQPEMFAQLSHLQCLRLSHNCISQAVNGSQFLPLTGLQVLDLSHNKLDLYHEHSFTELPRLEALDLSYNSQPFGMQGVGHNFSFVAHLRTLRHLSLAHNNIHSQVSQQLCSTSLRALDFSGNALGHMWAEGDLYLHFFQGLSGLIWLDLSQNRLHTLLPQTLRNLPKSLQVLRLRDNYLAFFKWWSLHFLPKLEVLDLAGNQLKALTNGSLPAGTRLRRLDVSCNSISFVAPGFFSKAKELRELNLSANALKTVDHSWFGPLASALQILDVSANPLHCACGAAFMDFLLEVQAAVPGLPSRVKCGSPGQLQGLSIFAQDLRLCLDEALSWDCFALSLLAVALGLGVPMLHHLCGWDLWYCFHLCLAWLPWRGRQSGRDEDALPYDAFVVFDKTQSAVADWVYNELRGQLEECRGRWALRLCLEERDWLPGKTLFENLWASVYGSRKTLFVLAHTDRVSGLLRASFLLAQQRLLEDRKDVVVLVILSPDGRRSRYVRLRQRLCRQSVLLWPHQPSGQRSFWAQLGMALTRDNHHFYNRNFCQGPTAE
The assay can be described thus: TLR9 inhibition reporter assay (HEK-Blue cells, SEAP reporter, ODN2006 stimulation). The conditions noted are these: HEK-Blue cells overexpressing human TLR9, SEAP reporter, ODN2006 5 nM. Put shortly: (§1)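 Percent inhibition of agonist-induced SEAP secretion in HEK-Blue cells after 22 h at 37 °C. Stimuli: 7.5 μM gardiquimod, 15.9 μM R848, 5 nM ODN2006 for TLR7, TLR8 and TLR9, added after 30 min compound exposure over a 0.05 nM–50 μM range.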
Background: In a reporter assay the amount or activity of a reporter protein is the signal.

The target in another assay is T2, human TLR7 (Homo sapiens, UniProt Q9NYK1).
T2 construct: host or cells: HEK-Blue cells (HEK293-derived reporter line)
T2 sequence (Q9NYK1 27-1049): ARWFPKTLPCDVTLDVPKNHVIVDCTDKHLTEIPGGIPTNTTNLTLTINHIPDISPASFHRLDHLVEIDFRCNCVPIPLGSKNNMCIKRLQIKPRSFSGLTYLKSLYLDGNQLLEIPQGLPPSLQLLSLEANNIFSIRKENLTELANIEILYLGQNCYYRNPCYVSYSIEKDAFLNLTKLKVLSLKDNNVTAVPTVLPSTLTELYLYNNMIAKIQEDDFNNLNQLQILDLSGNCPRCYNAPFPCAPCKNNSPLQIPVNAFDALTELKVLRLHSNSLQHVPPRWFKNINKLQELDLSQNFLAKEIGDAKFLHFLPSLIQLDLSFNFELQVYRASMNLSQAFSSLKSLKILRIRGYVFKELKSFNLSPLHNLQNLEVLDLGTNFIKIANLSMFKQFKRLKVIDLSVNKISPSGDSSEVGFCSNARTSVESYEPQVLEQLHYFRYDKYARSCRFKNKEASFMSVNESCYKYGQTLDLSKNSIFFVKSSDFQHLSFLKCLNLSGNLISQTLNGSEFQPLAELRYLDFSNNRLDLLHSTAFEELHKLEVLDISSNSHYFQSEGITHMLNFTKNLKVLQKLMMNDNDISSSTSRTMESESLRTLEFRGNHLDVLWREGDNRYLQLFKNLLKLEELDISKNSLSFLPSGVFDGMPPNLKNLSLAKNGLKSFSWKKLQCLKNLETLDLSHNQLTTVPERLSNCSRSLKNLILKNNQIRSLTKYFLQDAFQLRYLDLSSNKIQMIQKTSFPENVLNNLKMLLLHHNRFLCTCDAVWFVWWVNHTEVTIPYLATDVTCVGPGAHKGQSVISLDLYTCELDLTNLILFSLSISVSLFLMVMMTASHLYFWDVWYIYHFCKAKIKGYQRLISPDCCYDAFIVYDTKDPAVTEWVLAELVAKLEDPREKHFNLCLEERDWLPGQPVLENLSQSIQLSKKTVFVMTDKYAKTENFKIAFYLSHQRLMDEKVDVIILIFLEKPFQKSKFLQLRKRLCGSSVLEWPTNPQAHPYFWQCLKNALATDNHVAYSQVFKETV
The assay can be described thus: TLR7 inhibition reporter assay (HEK-Blue cells, SEAP reporter, gardiquimod stimulation). The following applies: HEK-Blue cells overexpressing human TLR7, SEAP reporter, gardiquimod 7.5 μM. Put shortly:
as §1

A further assay concerns the target T3, human TLR8 (Homo sapiens, UniProt Q9NR97).
T3 construct: host or cells: HEK-Blue cells (HEK293-derived reporter line)
T3 sequence (Q9NR97 27-1041): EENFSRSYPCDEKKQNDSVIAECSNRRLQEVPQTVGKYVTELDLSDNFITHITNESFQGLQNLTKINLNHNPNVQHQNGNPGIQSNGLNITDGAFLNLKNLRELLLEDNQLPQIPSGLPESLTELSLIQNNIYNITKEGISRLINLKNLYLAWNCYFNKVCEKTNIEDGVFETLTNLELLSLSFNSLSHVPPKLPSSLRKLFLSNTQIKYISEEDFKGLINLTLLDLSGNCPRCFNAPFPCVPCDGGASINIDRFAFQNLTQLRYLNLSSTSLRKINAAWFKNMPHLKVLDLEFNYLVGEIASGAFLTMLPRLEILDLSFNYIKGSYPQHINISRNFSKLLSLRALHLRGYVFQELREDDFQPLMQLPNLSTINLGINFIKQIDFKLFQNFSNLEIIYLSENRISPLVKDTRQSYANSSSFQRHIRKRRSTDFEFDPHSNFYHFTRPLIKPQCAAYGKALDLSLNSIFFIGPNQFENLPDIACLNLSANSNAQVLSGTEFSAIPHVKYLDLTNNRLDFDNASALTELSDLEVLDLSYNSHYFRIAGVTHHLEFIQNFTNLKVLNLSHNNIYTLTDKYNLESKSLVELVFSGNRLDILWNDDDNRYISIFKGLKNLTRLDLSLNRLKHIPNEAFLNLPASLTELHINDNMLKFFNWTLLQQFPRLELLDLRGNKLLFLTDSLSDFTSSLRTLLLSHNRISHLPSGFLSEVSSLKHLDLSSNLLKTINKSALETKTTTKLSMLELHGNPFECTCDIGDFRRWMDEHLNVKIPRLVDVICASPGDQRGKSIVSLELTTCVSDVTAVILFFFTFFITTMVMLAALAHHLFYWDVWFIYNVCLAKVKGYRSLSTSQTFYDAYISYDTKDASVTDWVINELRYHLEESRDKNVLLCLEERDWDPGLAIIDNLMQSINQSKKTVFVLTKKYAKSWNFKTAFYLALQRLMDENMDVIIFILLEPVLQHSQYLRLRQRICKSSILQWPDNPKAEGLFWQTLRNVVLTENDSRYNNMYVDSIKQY
The assay can be described thus: TLR8 inhibition reporter assay (HEK-Blue cells, SEAP reporter, R848 stimulation). The conditions noted are these: HEK-Blue cells overexpressing human TLR8, SEAP reporter, R848 15.9 μM. Summed up:
as §1

Broadly, the pIC50 is −log10 of the IC50, conventionally taken in molar units. A high value points to a low IC50. On to `Cc1cc(-c2[nH]c3ccc(C4CCN(C5COC5)CC4)cc3c2C(C)C)cc2[nH]c(=O)oc12` [Example 708, 5-(3-isopropyl-5-(1-(oxetan-3-yl)piperidin-4-yl)-1H-indol-2-yl)-7-methylbenzo[d]oxazol-2(3H)-one], for which the pIC50 against human TLR9 is 4.30 to 6.00; against human TLR7 it was 6.00 to 7.00; at human TLR8, 6.00 to 7.00.

With `CNC(=O)c1cn2cc(-c3[nH]c4ccc(C5CCN(C(=O)CN(C)C)CC5)cc4c3C(C)C)cc(C)c2n1` [Example 495, 6-(5-(1-(dimethylglycyl)piperidin-4-yl)-3-isopropyl-1H-indol-2-yl)-N,8-dimethylimidazo[1,2-a] pyridine-2-carboxamide], the results for the pIC50 against human TLR9, at human TLR7 and at human TLR8 were 6.00 to 7.00, > 7.00 and > 7.00, respectively.

For the compound `CNC(=O)CN1CCC(c2ccc3[nH]c(-c4cc(OC)n5cc(C)nc5c4)c(C(C)C)c3c2)CC1` [Example 335, 2-(4-(3-isopropyl-2-(5-methoxy-2-methylimidazo[1,2-a]pyridin-7-yl)-1H-indol-5-yl)piperidin-1-yl)-N-methylacetamide], the pIC50 against human TLR9 is 4.30 to 6.00; on human TLR7, 6.00 to 7.00; against human TLR8, 4.30 to 6.00.

As for `Cc1cc(-c2[nH]c3ccc(C4CCNCC4)cc3c2C(C)C)c2[nH]ncc2n1` [Example 49, 7-(3-isopropyl-5-(piperidin-4-yl)-1H-indol-2-yl)-5-methyl-1H-pyrazolo[4,3-b]pyridine], the figures for the negative logarithm of the IC50 (pIC50) on human TLR9, on human TLR7 and at human TLR8 were 4.30 to 6.00, > 7.00 and > 7.00, respectively.

For the compound `CC(C)c1c(-c2cn(C)c3ncccc23)[nH]c2ccc(C3CCN(CC(=O)N4CCOCC4)CC3)cc12` [Example 294, 2-(4-(3-isopropyl-2-(1-methyl-1H-pyrrolo[2,3-b]pyridin-3-yl)-1H-indol-5-yl)piperidin-1-yl)-1-morpholinoethan-1-one], the figures for the pIC50 on human TLR9, against human TLR7 and against human TLR8 were 4.30 to 6.00, > 7.00 and > 7.00, respectively.

In the case of `Cc1nc2cc(-c3[nH]c4ccc(C5CCN(C6COC6)CC5)cc4c3C(C)C)cc(C)c2o1` [Example 709, 5-(3-isopropyl-5-(1-(oxetan-3-yl)piperidin-4-yl)-1H-indol-2-yl)-2,7-dimethylbenzo[d]oxazole], the pIC50 is 4.30 to 6.00 against human TLR9, 6.00 to 7.00 at human TLR7 and 4.30 to 6.00 against human TLR8.

With `Cc1cc(-c2[nH]c3ccc(C4CCNCC4)cc3c2C(C)C)cc2cncn12` [Example 164, 7-(3-isopropyl-5-(piperidin-4-yl)-1H-indol-2-yl)-5-methylimidazo[1,5-a]pyridine], the pIC50 was 6.00 to 7.00 against human TLR9, > 7.00 at human TLR7 and > 7.00 at human TLR8.

As to `CNC(=O)CN1CCC(c2ccc3[nH]c(-c4cc(C)c5nccn5c4)c(C(C)C)c3c2)CC1` [Example 397, 2-(4-(3-isopropyl-2-(8-methylimidazo[1,2-a]pyridin-6-yl)-1H-indol-5-yl)piperidin-1-yl)-N-methylacetamide], the pIC50 against human TLR9 was 6.00 to 7.00; on human TLR7 it was > 7.00; at human TLR8, > 7.00.

Turning to `COc1cc(-c2[nH]c3ccc(C4CCN(Cc5cnn[nH]5)CC4)cc3c2C(C)C)nn2ncnc12` [Example 860, 6-(5-(1-((1H-1,2,3-triazol-5-yl)methyl)piperidin-4-yl)-3-isopropyl-1H-indol-2-yl)-8-methoxy-[1,2,4]triazolo[1,5-b]pyridazine], the pIC50 was 4.30 to 6.00 at human TLR9, > 7.00 on human TLR7 and > 7.00 at human TLR8.

For the compound `Cc1cn2cc(-c3[nH]c4ccc(C5CCN(Cc6cnn(C)c6)CC5)cc4c3C(C)C)cc(C(F)(F)F)c2n1` [Example 934, 6-(3-isopropyl-5-(1-((1-methyl-1H-pyrazol-4-yl)methyl)piperidin-4-yl)-1H-indol-2-yl)-2-methyl-8-(trifluoromethyl)imidazo[1,2-a]pyridine], the results for the pIC50 against human TLR9, at human TLR7 and at human TLR8 were 4.30 to 6.00, > 7.00 and 6.00 to 7.00, respectively.

As to `CCCN1CCC(c2ccc3[nH]c(-c4cc(OC)c5ncnn5n4)c(C(C)C)c3c2)CC1` [Example 952, 6-(3-isopropyl-5-(1-propylpiperidin-4-yl)-1H-indol-2-yl)-8-methoxy-[1,2,4]triazolo[1,5-b]pyridazine], the pIC50 against human TLR9 is 4.30 to 6.00; against human TLR7 it was > 7.00; against human TLR8 it was > 7.00.

As to `CC(C)c1c(-c2ccnc3[nH]ncc23)[nH]c2ccc(C3CCN(C(=O)CN4CCC[C@H]4C(N)=O)CC3)cc12` [Example 584, (S)-1-(2-(4-(3-isopropyl-2-(1H-pyrazolo[3,4-b]pyridin-4-yl)-1H-indol-5-yl)piperidin-1-yl)-2-oxoethyl)pyrrolidine-2-carboxamide], the pIC50 was 4.30 to 6.00 at human TLR9, > 7.00 against human TLR7 and > 7.00 against human TLR8.
